From patent US4254285A, “1-Hydroxymethyl-1-1-oxo prostane derivatives of the E and F series” (American Cyanamid Company, priority 1979, dated 1981)
Where two headings read alike, the source gives them in different places.

How the values were obtained:
gastric secretion = test: Gastric anti-secretory test, Heidenhain pouch, histamine-stimulated; format: in vivo, dog; conditions: oral 100 mg/Kg
Protocol: Unanesthetized mongrel dogs weighing 10-15 Kg are used. The animals have a surgically prepared denervated (Heidenhain) pouch which drains by gravity through a titanium cannula. These animals are trained to stand quietly in a Pavlov support. Gastric secretion is stimulated at the lowest rate giving stable secretion (25-40% of maximal) with histamine acid phosphate, 30-50 μg/Kg/hr. Under such stimulation, a stable gastric secretory output can generally be maintained for a period of at least 3 hours.
Gastric juice is collected continuously during secretory studies and pooled into 15-minute collections. Determination of collection volume, pH and titratable acidity is performed. Acid is determined by titrating an aliquot of gastric sample with 0.1 N NaOH to pH 7.0 using an automatic titrator.
Drugs are administered on a background of submaximal gastric secretory stimulation and the results compared with control secretory studies without the use of drug. Depending upon the duration of action of a particular drug, it may be possible for a single drug-secretory study to serve as its own control. The route of drug administration is oral administration into the main stomach.
For example, one of the PGE compounds of this invention 1,9-dioxo-11α,16-dihydroxy-16-methyl-1-hydroxymethyl-5-trans prostadiene on administration into the stomach of one of these dogs at a dose of […] gives the results shown hereinbelow in Table D. The data in Table D is the average of four tests in one dog.

[1] = format: in vivo, rat
Protocol: (§1) Male Wistar rats (Royal Hart, New Hampton, N.Y.), weighing 190-210 g are distributed among control and treatment groups (5 rats/group) and housed one rat per cage. During the 52 hour test period, the rats are permitted free access to food and drinking water for the first 33 hours but are fasted overnight prior to sacrifice. Indomethacin is suspended (4 mg/ml) in a 1.5% starch-phosphate buffer solution (SPBS). 1,9-dioxo-11α,16-dihydroxy-16-methyl-1-hydroxymethyl-13-transprostene is dissolved at 10 mg/ml in ethanol and then diluted in SPBS to 0.1 mg/ml or to a lower concentration as required. The indomethacin suspension is injected subcutaneously (10 mg/kg) and the prostaglandin suspension is given by gavage (0.5 mg/kg or less) b.i.d. on day 0 and 1. Rats receive only one dose of prostaglandin and indomethacin on day 2 and 6 hours later are killed with chloroform. The stomachs are dissected, opened along the greater curvature, and rinsed briefly in tap water. They are then spread, mucosal surface facing upward and pinned onto uniform size corks (2.5 inch diameter) individually numbered on the back. The identification number for each stomach is unknown to the investigator and the stomachs are randomly graded according to the following scheme:
(§2) ^a Treatment is B.I.D. on days 0 and 1, and once on day 2, six hours
(§3) prior to sacrifice for scoring.

[2] = test system: indomethacin-induced intestinal ulcers; format: in vivo, rat
Protocol: as §1
Intestines are also removed and examined for the presence of ulcers, which are graded according to the scheme outlined below.
1--Mucosa thin, petechial hemorrhage
2--"Blow-outs", when intestine inflated with air
3--Few ulcers. Gut more fragile than normal, tears along line of mesentery attachements when removed
4--Many large perforating lesions. Adhesions. Gut hemorrhagic and very fragile. Tears readily and cannot be removed intact. Graded in situ.
as §2, §3

[3] = test system: indomethacin-induced gastric ulcers; format: in vivo, rat
Protocol: as §1
1--Petechial hemorrhage, or pin-point ulcers
2--One or two small ulcers or hemorrhagic erosions
3--Many areas of hemorrhage erosion or ulcers, a few large
4--Massive areas of hemorrhagic erosion or many ulcers, mainly large
as §2, §3

[4] = 0 min., average of four tests in one dog
[5] = .02 mg/kg P.O. with indomethacin 10 mg/kg subcut.
[6] = .1 mg/kg P.O. with indomethacin 10 mg/kg subcut.
[7] = .5 mg/kg P.O. with indomethacin 10 mg/kg subcut.

## CCCCC(C)(O)CC=CC1C(O)CC(=O)C1CC=CCCCC(=O)CO (stereo not drawn) [1,9-dioxo-11α,16-dihydroxy-16-methyl-1-hydroxymethyl-5-cis-13-trans-prostadiene]
Gastric secretion; [4]
  Acid: 0.43 meg/15 min.
  Volume of gastric juice: 3.4 mL
Gastric secretion; 15 min.
  Acid: 0.35 meg/15 min.
  Volume of gastric juice: 2.6 mL
Gastric secretion; 30 min.
  Acid: 0.22 meg/15 min.
  Volume of gastric juice: 1.5 mL
Gastric secretion; 45 min.
  Acid: 0.20 meg/15 min.
  Volume of gastric juice: 1.3 mL
Gastric secretion; 60 min.
  Acid: 0.09 meg/15 min.
  Volume of gastric juice: 0.7 mL
Gastric secretion; 75 min.
  Acid: 0.13 meg/15 min.
  Volume of gastric juice: 0.9 mL
Gastric secretion; 90 min.
  Acid: 0.21 meg/15 min.
  Volume of gastric juice: 1.5 mL
Gastric secretion; 105 min.
  Acid: 0.27 meg/15 min.
  Volume of gastric juice: 1.9 mL
Gastric secretion; 120 min.
  Acid: 0.40 meg/15 min.
  Volume of gastric juice: 2.7 mL

## CCCCC(C)(O)CC=CC1C(O)CC(=O)C1CCCCCCC(=O)CO (stereo not drawn)
[1]; [5]
  Hematocrit (Mean ± S.E.M.): 35.6 ± 1.9
[1]; [6]
  Hematocrit (Mean ± S.E.M.): 41.1 ± 2.4
[1]; [7]
  Hematocrit (Mean ± S.E.M.): 40.0 ± 1.4
[2]; [5]
  Intestinal Ulcer Score (Mean ± S.E.M.): 3.5 ± 0.2
[2]; [6]
  Intestinal Ulcer Score (Mean ± S.E.M.): 2.7 ± 0.2
[2]; [7]
  Intestinal Ulcer Score (Mean ± S.E.M.): 2.0 ± 0.4
[3]; [5]
  Gastric Ulcer Score (Mean ± S.E.M.): 1.9 ± 0.4
[3]; [6]
  Gastric Ulcer Score (Mean ± S.E.M.): 1.7 ± 0.3
[3]; [7]
  Gastric Ulcer Score (Mean ± S.E.M.): 2.1 ± 0.4
